The text below walks through data of PubChem BioAssay (NCI).

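Protocol summary: plate cells (96-well), add compound at 5 concentrations, incubate 48 h, interpolate endpoints linearly. Abbreviation: GI50, concentration required for 50% inhibition of growth. TGI: concentration producing complete growth inhibition.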

Test systems include OVCAR-5 ovarian; SK-OV-3 ovarian; UACC-62 melanoma; MOLT-4 leukemia; NCI-H23 lung; COLO 205 colon; SW-620 colon; RPMI-8226 leukemia; BT-549 breast; MDA-MB-231 breast.
Holding throughout (test): NCI anticancer screen, dose series, 48 h

`O=C1CCCCCCCCCCC1CN1CCCC1` (stereo not drawn): the TGI was greater than 100 µM in the assay with OVCAR-5 ovarian; greater than 100 µM in the assay on SK-OV-3 ovarian; 36.7 µM with UACC-62 melanoma; greater than 100 µM in the assay on MOLT-4 leukemia; greater than 100 µM in the assay on NCI-H23 lung; 51.9 µM with COLO 205 colon. In addition, the TGI in the assay with SW-620 colon, in the assay on RPMI-8226 leukemia, with BT-549 breast and in the assay on MDA-MB-231 breast was greater than 100 µM each time.

For `Cn1ncnc1[C@H]1c2n[nH]c(=O)c3cc(F)cc(c23)N[C@@H]1c1ccc(F)cc1`, the GI50 with OVCAR-5 ovarian was greater than 100 µM; with SK-OV-3 ovarian, greater than 100 µM; with UACC-62 melanoma it was greater than 100 µM; in the assay with MOLT-4 leukemia, 5.07 µM; in the assay with NCI-H23 lung, greater than 34.5 µM; in the assay with COLO 205 colon, greater than 100 µM. Moreover, the GI50 with SW-620 colon is 25.9 µM; in the assay on RPMI-8226 leukemia, greater than 100 µM; with BT-549 breast it was greater than 87.1 µM; in the assay with MDA-MB-231 breast it was greater than 100 µM. Besides, the TGI with OVCAR-5 ovarian, with SK-OV-3 ovarian, in the assay on UACC-62 melanoma, in the assay on MOLT-4 leukemia, in the assay with NCI-H23 lung and with COLO 205 colon was greater than 100 µM in each case. Besides, the TGI in the assay on SW-620 colon, with RPMI-8226 leukemia, with BT-549 breast and in the assay with MDA-MB-231 breast was greater than 100 µM in each case.

In the case of `O=C(/C=C/Sc1cc(C(F)(F)F)cc(C(F)(F)F)c1)c1ccc(Cl)cc1`, the GI50 in the assay with OVCAR-5 ovarian is 18.6 µM; with SK-OV-3 ovarian it was 15.1 µM; with UACC-62 melanoma it was 4.58 µM; in the assay on MOLT-4 leukemia, 1.64 µM; in the assay on NCI-H23 lung, 17 µM; in the assay on COLO 205 colon, 2.1 µM. Also, the GI50 in the assay on SW-620 colon is 17 µM; with RPMI-8226 leukemia, 0.197 µM; in the assay with BT-549 breast it was 11.5 µM; in the assay on MDA-MB-231 breast it was 2.51 µM. Further, the TGI worked out at 33.7 µM in the assay on OVCAR-5 ovarian; 31.3 µM in the assay with SK-OV-3 ovarian; 15.6 µM with UACC-62 melanoma; 9.12 µM in the assay on MOLT-4 leukemia; 31.3 µM in the assay with NCI-H23 lung; 6.6 µM in the assay with COLO 205 colon. The TGI with SW-620 colon came out at 41.3 µM; in the assay with RPMI-8226 leukemia, 1.02 µM; in the assay with BT-549 breast, 23.8 µM; in the assay with MDA-MB-231 breast it was 8.67 µM.

As to `COc1cc2nc(N3CCCC3)nc(NCc3ccccc3)c2cc1OC`, the GI50 in the assay on OVCAR-5 ovarian is 4.63 µM; in the assay with SK-OV-3 ovarian, 14 µM; in the assay with UACC-62 melanoma it was 2.28 µM; with MOLT-4 leukemia, 2.89 µM; with NCI-H23 lung, 11.2 µM; in the assay on COLO 205 colon, 1.45 µM. The GI50 in the assay with SW-620 colon is 2.28 µM; with RPMI-8226 leukemia, 2.44 µM; with BT-549 breast, 3.52 µM; with MDA-MB-231 breast, 2.1 µM. Also, the TGI in the assay with OVCAR-5 ovarian was found to be 16.8 µM; in the assay with SK-OV-3 ovarian, 27.4 µM; in the assay with UACC-62 melanoma it was 5.39 µM; with MOLT-4 leukemia it was 9.1 µM; with NCI-H23 lung it was 25.2 µM; in the assay with COLO 205 colon it was 3.14 µM. The TGI with SW-620 colon is 6.24 µM; with RPMI-8226 leukemia, 5.99 µM; in the assay on BT-549 breast, 13.4 µM; in the assay with MDA-MB-231 breast, 4.48 µM.

Turning to `COc1cc(C(=O)c2c(-c3ccccc3)oc3c(OC)cccc23)cc(OC)c1OC`, the GI50 was 0.158 µM in the assay on OVCAR-5 ovarian; 1.57 µM with SK-OV-3 ovarian; 0.0522 µM in the assay on UACC-62 melanoma; 0.345 µM in the assay with MOLT-4 leukemia; 0.106 µM with NCI-H23 lung; 0.123 µM in the assay on COLO 205 colon. Moreover, the GI50 was 0.0497 µM with SW-620 colon, 0.112 µM in the assay with RPMI-8226 leukemia, 0.154 µM in the assay on BT-549 breast and 0.203 µM with MDA-MB-231 breast. In addition, the TGI in the assay with OVCAR-5 ovarian is greater than 100 µM; in the assay with SK-OV-3 ovarian it was greater than 100 µM; with UACC-62 melanoma, greater than 96.5 µM; with MOLT-4 leukemia, greater than 100 µM; with NCI-H23 lung, 16.8 µM; in the assay with COLO 205 colon it was 0.485 µM. The TGI in the assay with SW-620 colon was greater than 100 µM; in the assay on RPMI-8226 leukemia it was greater than 100 µM; in the assay on BT-549 breast it was 1.5 µM; in the assay with MDA-MB-231 breast, 2 µM.

Take `COC1CC(O[C@H]2CC[C@@]3(C)[C@H](CC[C@@H]4[C@@H]3CC[C@]3(C)[C@@H](C5=CC(=O)OC5)[C@@H](OC(C)=O)C[C@]43O)C2)OC(C)C1O` (stereo partly drawn): the GI50 in the assay on OVCAR-5 ovarian, with SK-OV-3 ovarian, with UACC-62 melanoma, in the assay with MOLT-4 leukemia, in the assay with NCI-H23 lung and in the assay on COLO 205 colon was less than 0.01 µM in each case. Besides, the GI50 in the assay with SW-620 colon, in the assay with RPMI-8226 leukemia, in the assay with BT-549 breast and in the assay with MDA-MB-231 breast was less than 0.01 µM each time. Moreover, the TGI in the assay on OVCAR-5 ovarian, in the assay on SK-OV-3 ovarian, with UACC-62 melanoma, with MOLT-4 leukemia, with NCI-H23 lung and with COLO 205 colon was less than 0.01 µM in each case. Further, the TGI in the assay on SW-620 colon is less than 0.01 µM; in the assay with BT-549 breast, less than 0.01 µM; in the assay with MDA-MB-231 breast, less than 0.0155 µM.

Turning to `O=C(C/C(=N/O)C(=O)NC1=C(Cl)C(=O)c2ccccc2C1=O)CC(c1ccccc1)c1c(O)c2ccccc2oc1=O` (stereo not drawn), the TGI in the assay on OVCAR-5 ovarian is 32.8 µM; in the assay with SK-OV-3 ovarian, greater than 100 µM; in the assay with UACC-62 melanoma, greater than 100 µM; in the assay with MOLT-4 leukemia it was greater than 100 µM; with NCI-H23 lung it was 72.1 µM; in the assay with COLO 205 colon it was 33.7 µM. The TGI was greater than 100 µM in the assay with SW-620 colon, greater than 100 µM in the assay on RPMI-8226 leukemia, greater than 100 µM with BT-549 breast and 26.5 µM with MDA-MB-231 breast.

Regarding `Cc1cc(NCCCN(C)C)c2ccc3c(ccc4c(NCCCN(C)C)cc(C)nc43)c2n1`, the GI50 in the assay with OVCAR-5 ovarian was 0.246 µM; with SK-OV-3 ovarian it was 0.23 µM; in the assay with UACC-62 melanoma, 0.283 µM; in the assay with MOLT-4 leukemia, 0.27 µM; in the assay on NCI-H23 lung it was 0.23 µM; in the assay with COLO 205 colon it was 0.183 µM. For the same compound, the GI50 with SW-620 colon was 0.185 µM; in the assay with RPMI-8226 leukemia, 0.0489 µM; in the assay with BT-549 breast, 1.85 µM; in the assay with MDA-MB-231 breast, 0.175 µM. Also, the TGI in the assay with OVCAR-5 ovarian came out at 0.909 µM; in the assay with SK-OV-3 ovarian, 0.507 µM; with UACC-62 melanoma, 0.93 µM; in the assay with NCI-H23 lung, 0.673 µM; with COLO 205 colon, 0.408 µM; in the assay with SW-620 colon, 0.493 µM. The results for the TGI with RPMI-8226 leukemia, with BT-549 breast and in the assay with MDA-MB-231 breast were 0.147 µM, 3.53 µM and 0.468 µM, respectively.
